The values below come from patent US6881741B2 (ViroChem Pharma Inc., priority 2001, dated 2005).

The target of the assay is recombinant HCV NS5B (HCV RNA-dependent RNA polymerase) (Hepatitis C virus genotype 1b, UniProt P26663). Nature of the assay: biochemical.
[1] abbreviates: HCV polymerase activity, list of compounds of Example 27, read-out: IC50 (polymerase activity).
Where [2] appears, read: related polymerase activity (Example 27 list), read-out: IC50.

The structures appear in SMILES notation. Where two headings read alike, the source gives them in different places.

recombinant HCV NS5B (HCV RNA-dependent RNA polymerase), sequence (P26663 2420-3010 limits assumed): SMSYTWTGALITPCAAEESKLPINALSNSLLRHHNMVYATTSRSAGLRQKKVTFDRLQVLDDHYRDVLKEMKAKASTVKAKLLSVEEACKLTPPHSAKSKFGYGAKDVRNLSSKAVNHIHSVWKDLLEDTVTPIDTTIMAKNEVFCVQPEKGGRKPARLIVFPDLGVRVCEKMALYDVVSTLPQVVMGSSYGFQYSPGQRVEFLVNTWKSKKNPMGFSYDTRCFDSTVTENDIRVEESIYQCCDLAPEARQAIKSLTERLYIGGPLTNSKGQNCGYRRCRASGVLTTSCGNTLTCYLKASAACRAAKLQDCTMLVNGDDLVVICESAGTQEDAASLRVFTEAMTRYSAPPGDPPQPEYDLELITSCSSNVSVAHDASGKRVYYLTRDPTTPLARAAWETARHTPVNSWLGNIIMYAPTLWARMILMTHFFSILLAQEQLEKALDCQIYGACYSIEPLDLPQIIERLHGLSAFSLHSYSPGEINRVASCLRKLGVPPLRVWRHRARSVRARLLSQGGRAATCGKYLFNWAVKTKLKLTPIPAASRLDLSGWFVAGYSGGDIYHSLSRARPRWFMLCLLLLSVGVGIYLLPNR

For orientation: IC50 means the midpoint of a concentration-inhibition curve. For `O=C(O)c1sc(-c2ccccc2)cc1N(Cc1ccc(F)cc1F)C(=O)C1CCC1` [Compound 495, 3-[CYCLOBUTANECARBONYL-(2,4- DIFLUORO-BENZYL)-AMINO]-5-PHENYL- THIOPHENE-2-CARBOXYLIC ACID], under setting [1], the IC50 was below 5 µM.
With `CC(C)N(C(=O)c1ccc(Cl)cc1Cl)c1cc(-c2ccc(F)cc2)sc1C(=O)O` [Compound 356, 3-[(2,4-DICHLORO-BENZOYL)- ISOPROPYL-AMINO]-5-(4-FLUORO- PHENYL)-THIOPHENE-2-CARBOXYLIC ACID], under setting [2], the IC50 is below 5 µM.
Regarding `Cc1ccc(N(C)C(=O)c2cc(-c3ccccc3)sc2C(=O)O)cc1` [Compound 584, 3-(METHYL-P-TOLYL-CARBAMOYL)-5- PHENYL-THIOPHENE-2-CARBOXYLIC ACID], under setting [1], the half-maximal inhibitory concentration (IC50) lay within 5 to 20 µM.
With `CC(C)N(C(=O)c1ccc(Cl)cc1O)c1cc(-c2ccccc2)sc1C(=O)O` [Compound 313, 3-[(4-CHLORO-2-HYDROXY-BENZOYL)- ISOPROPYL-AMINO]-5-PHENYL- THIOPHENE-2-CARBOXYLIC ACID], under setting [2], the half-inhibitory concentration (IC50) is below 5 µM.
Turning to `Cc1ccccc1S(=O)(=O)Nc1cc(-c2ccoc2)sc1C(=O)O` [Compound 126, 5-FURAN-3-YL-3-(TOLUENE-2-SULFONYLAMINO)-THIOPHENE-2-CARBOXYLIC ACID], the IC50 under setting [2] is below 5 µM.
Same read-out and setting: for `Cc1ccccc1S(=O)(=O)Nc1cc(-c2cccc([N+](=O)[O-])c2)sc1C(=O)O` [Compound 63, 5-(3-NITRO-PHENYL)-3-(TOLUENE-2-SULFONYLAMINO)-THIOPHENE-2-CARBOXYLIC ACID] the value was below 5 µM; for `Cc1ccccc1S(=O)(=O)Nc1cc(-c2ccc(CO)cc2)sc1C(=O)O` [Compound 125, 5-(4-HYDROXYMETHYL-PHENYL)-3-(TOLUENE-2-SULFONYLAMINO)-THIOPHENE-2-CARBOXYLIC ACID], below 5 µM.
As for `CC(C)N(C(=O)c1ccc(Cl)cc1Cl)c1cc(-c2ccc(-c3nnn[nH]3)cc2)sc1C(=O)O` [Compound 430, 3-[(2,4-DICHLORO-BENZOYL)- ISOPROPYL-AMINO]-5-[4-(1#H!- TETRAZOL-5-YL)-PHENYL]-THIOPHENE- 2-CARBOXYLIC ACID], the half-maximal inhibitory concentration (IC50) under setting [1] is below 5 µM.
As for `Cc1cc(C(=O)N(C)c2cc(-c3ccccc3)sc2C(=O)O)ccc1Br` [Compound 255, 3-[(4-BROMO-3-METHYL-BENZOYL)-METHYL-AMINO]-5-PHENYL-THIOPHENE-2-CARBOXYLIC ACID], the 50% inhibitory concentration (IC50) under setting [2] was below 5 µM.
For the molecule `Cc1ccc(C(=O)N(C)c2cc(-c3ccc(F)c(F)c3)sc2C(=O)O)cc1` [Compound 270, 5-(3,4-DIFLUORO-PHENYL)-3-[METHYL-(4-METHYL-BENZOYL)-AMINO]-THIOPHENE-2-CARBOXYLIC ACID], the 50% inhibitory concentration (IC50) under setting [2] was below 5 µM.
`CC(=O)Nc1cccc(-c2cc(NS(=O)(=O)c3ccccc3C)c(C(=O)O)s2)c1` [Compound 90, 5-(3-ACETYLAMINO-PHENYL)-3-(TOLUENE-2-SULFONYLAMINO)-THIOPHENE-2-CARBOXYLIC ACID]: the IC50 under setting [2] lay within 5 to 20 µM.
On the same count and under the same terms, the result for `O=C(O)c1sc(-c2ccccc2)cc1NS(=O)(=O)c1c(Cl)cccc1Cl` [Compound 44, 3-(2,6-DICHLORO-BENZENESULFONYLAMINO)-5-PHENYL-THIOPHENE-2-CARBOXYLIC ACID] reads below 5 µM.
As for `Cc1ccc(C(=O)N(C)c2cc(-c3ccccc3)sc2C(=O)O)c(C)c1` [Compound 131, 3-[(2,4-DIMETHYL-BENZOYL)-METHYL-AMINO]-5-PHENYL-THIOPHENE-2 CARBOXYLIC ACID], the half-maximal inhibitory concentration (IC50) under setting [2] was below 5 µM.
For `C=CCN(C(=O)CCCC)c1cc(-c2ccccc2)sc1C(=O)O` [Compound 399, 3-(ALLYL-PENTANOYL-AMINO)-5- PHENYL-THIOPHENE-2-CARBOXYLIC ACID], the IC50 under setting [1] lay in the range of 5 to 20 µM.
Turning to `CC(C)(C)c1ccc(CN(C(=O)CC2CCCC2)c2cc(-c3ccccc3)sc2C(=O)O)cc1` [Compound 442, 3-[(4-TERT-BUTYL-BENZYL)-(2- CYCLOPENTYL-ACETYL)-AMINO]-5- PHENYL-THIOPHENE-2-CARBOXYLIC ACID], the half-inhibitory concentration (IC50) under setting [1] was below 5 µM.
On to `Cc1ccc(C(=O)N(c2cc(-c3ccccc3)sc2C(=O)O)C(C)C)cc1` [Compound 211, 3-[ISOPROPYL-(4-METHYL-BENZOYL)-AMINO]-5-PHENYL-THIOPHENE-2-CARBOXYLIC ACID], for which, under setting [2], the IC50 is below 5 µM.
Take `O=C(O)c1sc(-c2ccccc2)cc1NC(=O)N1CCN(c2ccc(F)cc2)CC1` [Compound 157, 3-{[4-(4-FLUORO-PHENYL)-PIPERAZINE-1-CARBONYL]-AMINO}-5-PHENYL-THIOPHENE-2-CARBOXYLIC ACID]: the IC50 under setting [2] was above 20 µM.
Regarding `CC(C)N(C(=O)[C@@H]1CC[C@@H](C)C[C@@H]1O)c1cc(-c2ccccc2)sc1C(=O)O` [Compound 540, 3-[((1R,2S,4R)-2-HYDROXY-4-METHYL- CYCLOHEXANECARBONYL)-ISOPROPYL- AMINO]-5-PHENYL-THIOPHENE-2- CARBOXYLIC ACID], under setting [1], the IC50 was below 5 µM.
With `Cc1ccc(C(=O)N(c2cc(-c3ccccc3)sc2C(=O)O)C(C)C)c(O)c1` [Compound 301, 3-[(2-HYDROXY-4-METHYL-BENZOYL)- ISOPROPYL-AMINO]-5-PHENYL- THIOPHENE-2-CARBOXYLIC ACID], the IC50 under setting [2] fell in the range of 5 to 20 µM.
For the molecule `CC(C)N(C(=O)[C@H]1CC[C@H](C)C[C@H]1O)c1cc(-c2ccc(F)cc2)sc1C(=O)O` [Compound 560], the IC50 under setting [1] was below 5 µM.
`CC(=O)N(Cc1ccc(Cl)cc1)c1cc(-c2ccccc2)sc1C(=O)O` [Compound 455, 3-[ACETYL-(4-CHLORO-BENZYL)-AMINO]- 5-PHENYL-THIOPHENE-2-CARBOXYLIC ACID]: under setting [1], the IC50 lay in the range of 5 to 20 µM.
For `O=C(O)c1sc(-c2ccccc2)cc1N(Cc1ccc(Cl)cc1)C(=O)CC1CCCC1` [Compound 463, 3-[(4-CHLORO-BENZYL)-(2- CYCLOPENTYL-ACETYL)-AMINO]-5- PHENYL-THIOPHENE-2-CARBOXYLIC ACID], the IC50 under setting [1] is below 5 µM.
Consider `O=C(Nc1cc(-c2ccccc2)sc1C(=O)O)c1ccc(Cl)cc1` [Compound 72, 3-(4-CHLORO-BENZOYLAMINO)-5-PHENYL-THIOPHENE-2-CARBOXYLIC ACID], for which, under setting [2], the IC50 is 5 to 20 µM.
Consider `Cc1cc(Cl)ccc1S(=O)(=O)Nc1cc(-c2ccccc2)sc1C(=O)O` [Compound 372, 3-(4-CHLORO-2-METHYL- BENZENESULFONYLAMINO)-5-PHENYL- THIOPHENE-2-CARBOXYLIC ACID], for which the IC50 under setting [2] was below 5 µM.
In the case of `CCN(CC)c1ncc(CN(C(=O)c2ccc(Cl)cc2Cl)c2cc(-c3ccccc3)sc2C(=O)O)s1` [Compound 557, 3-[(2,4-DICHLORO-BENZOYL)-(2- DIETHYLAMINO-THIAZOL-5-YLMETHYL)- AMINO]-5-PHENYL-THIOPHENE-2- CARBOXYLIC ACID], under setting [1], the IC50 was below 5 µM.
With `O=C(O)c1sc(-c2ccccc2)cc1NS(=O)(=O)c1cc(Cl)sc1Cl` [Compound 55, 3-(2,5-DICHLORO-THIOPHENE-3-SULFONYLAMINO)-5-PHENYL-THIOPHENE-2-CARBOXYLIC ACID], the half-maximal inhibitory concentration (IC50) under setting [2] lay within 5 to 20 µM.
Same read-out and setting: the result for `CC(C)N(C(=O)c1ccc(C(F)(F)F)cc1F)c1cc(-c2ccccc2)sc1C(=O)O` [Compound 326, 3-[(2-FLUORO-4-TRIFLUOROMETHYL- BENZOYL)-ISOPROPYL-AMINO]-5- PHENYL-THIOPHENE-2-CARBOXYLIC ACID] reads below 5 µM; that for `O=C(O)c1sc(-c2ccccc2)cc1NS(=O)(=O)c1ccccc1` [Compound 17, 3-BENZENESULFONYLAMINO-5-PHENYL-THIOPHENE-2-CARBOXYLIC ACID], 5 to 20 µM.
Turning to `CC(C)C(=O)N(Cc1ccccc1Cl)c1cc(-c2ccccc2)sc1C(=O)O` [Compound 421, 3-[(2-CHLORO-BENZYL)-ISOBUTYRYL- AMINO]-5-PHENYL-THIOPHENE-2- CARBOXYLIC ACID], the IC50 under setting [1] was in the range of 5 to 20 µM.
Take `Cc1ccc(C(=O)N(C)c2cc(-c3ccc(O)cc3)sc2C(=O)O)cc1` [Compound 215, 5-(4-HYDROXY-PHENYL)-3-[METHYL-(4-METHYL-BENZOYL)-AMINO]-THIOPHENE-2-CARBOXYLIC ACID]: the IC50 under setting [2] was below 5 µM.
In the case of `C=Cc1cc(C)ccc1C(=O)N(c1cc(-c2ccccc2)sc1C(=O)O)C(C)C` [Compound 395, 3-[ISOPROPYL-(4-METHYL-2-VINYL- BENZOYL)-AMINO]-5-PHENYL- THIOPHENE-2-CARBOXYLIC ACID], the IC50 under setting [2] lay in the range of 5 to 20 µM.
Consider `Cc1ccccc1S(=O)(=O)Nc1cc(-c2ccc(Cl)cc2)sc1C(=O)O` [Compound 68, 5-(4-CHLORO-PHENYL)-3-(TOLUENE-2-SULFONYLAMINO)-THIOPHENE-2-CARBOXYLIC ACID], for which, under setting [2], the concentration for half-maximal inhibition (IC50) is below 5 µM.
Regarding `CC(C)N(C(=O)c1cc(Cl)cc(Cl)c1)c1cc(-c2ccccc2)sc1C(=O)O` [Compound 219, 3-[(3,5-DICHLORO-BENZOYL)-ISOPROPYL-AMINO]-5-PHENYL-THIOPHENE-2-CARBOXYLIC ACID], the IC50 under setting [2] fell in the range of 5 to 20 µM.
Consider `O=C(O)c1sc(-c2ccccc2)cc1NC(=O)N1CCN(c2ccccc2Cl)CC1` [Compound 159, 3-{[4-(2-CHLORO-PHENYL)-PIPERAZINE-1-CARBONYL]-AMINO}-5-PHENYL-THIOPHENE-2-CARBOXYLIC ACID], for which, under setting [2], the IC50 was in the range of 5 to 20 µM.
For the molecule `Cc1cccc(C)c1N1CCN(C(=O)Nc2cc(-c3ccccc3)sc2C(=O)O)CC1` [Compound 158, 3-{[4-(2,6-DIMETHYL-PHENYL)-PIPERAZINE-1-CARBONYL]-AMINO}-5-PHENYL-THIOPHENE-2-CARBOXYLIC ACID], under setting [2], the IC50 was above 20 µM.
On the same count and under the same terms, the result for `Cc1ccc(C(=O)N(C)c2cc(-c3ccc(C)cc3)sc2C(=O)O)cc1` [Compound 199, 3-[METHYL-(4-METHYL-BENZOYL)-AMINO]-5-P-TOLYL-THIOPHENE-2-CARBOXYLIC ACID] reads 5 to 20 µM.
As for `CCCC(=O)N(Cc1ccc(Cl)cc1)c1cc(-c2ccccc2)sc1C(=O)O` [Compound 462, 3-[BUTYRYL-(4-CHLORO-BENZYL)- AMINO]-5-PHENYL-THIOPHENE-2- CARBOXYLIC ACID], under setting [1], the IC50 lay in the range of 5 to 20 µM.
In the case of `Cc1ccc(C(=O)N(C)c2cc(-c3cccc([N+](=O)[O-])c3)sc2C(=O)O)cc1` [Compound 196, 3-[METHYL-(4-METHYL-BENZOYL)-AMINO]-5-(3-NITRO-PHENYL)-THIOPHENE-2-CARBOXYLIC ACID], the IC50 under setting [2] was below 5 µM.
Turning to `O=C(O)c1sc(-c2ccc(F)cc2)cc1NS(=O)(=O)c1ccccc1` [Compound 135, 3-BENZENESULFONYLAMINO-5-(4-FLUORO-PHENYL)-THIOPHENE-2-CARBOXYLIC ACID], the IC50 under setting [2] was below 5 µM.
